In EP1019392B1, “TRICYCLIC AMIDES USEFUL FOR INHIBITION OF G-PROTEIN FUNCTION AND FOR TREATMENT OF PROLIFERATIVE DISEASES” (SCHERING CORPORATION, priority 1995, dated 1997):
Where a name gives a salt, the structure may show the parent alone. Read-outs that look alike come from different tables or passages of the source.

Columns and labels:
[1] = system: Normal human HEPM fibroblasts; test: Cell Mat Assay, normal cell mat; type: cell-based; conditions: normal monolayer
[2] = system: SW620-BAG human colon carcinoma cells expressing an activated K-ras gene; test: Cell Mat Assay, SW620 tumor cells; type: cell-based
[3] = system: DLD-1-BAG human colon carcinoma cells expressing as activated K-ras gene; test: Cell Mat Assay, DLD-1 tumor cells; type: cell-based; conditions: Homo sapiens, DLD-1, Mat assay
[4] = system: T24-BAG4 human bladder carcinoma cells expressing an activated H-ras gene; test: Cell Mat Assay, T24 tumor cells; type: cell-based; conditions: read-out: Tumor (T-24) IC50
[5] = system: Ras-CVLS processing in COS monkey kidney cells; test: COS cell assay: inhibition of Ras-CVLS processing (Western blot); type: cell-based
From the text: • 1. In vitro enzyme assays: Inhibition of farnesyl protein transferase and geranylgeranyl protein transferase. Both farnesyl protein transferase (FPT) and geranylgeranyl protein transferase (GGPT) I were partially purified from rat brain by ammonium sulfate fractionation followed by Q-Sepharose (Pharmacia, Inc.) anion exchange chromatography essentially as described by Yokoyama et al (Yokoyama, K., et al., (1991), A protein geranylgeranyltransferase from bovine brain: Implications for protein prenylation specificity, Proc. Natl. Acad. Sci USA 88: 5302-5306, the disclosure of which is incorporated herein by reference thereto). Human farnesyl protein transferase was also expressed in E. coli, using cDNA clones encoding both the a and b subunits. The methods used were similar to those published (Omer, C. et al., (1993), Characterization of recombinant human farnesyl protein transferase: Cloning, expression, farnesyl diphosphate binding, and functional homology with yeast prenyl-protein transferases, Biochemistry 32:5167-5176). Human farnesyl protein transferase was partially-purified from the soluble protein fraction of E. coli as described above. […] Two forms of val^12-Ha-Ras protein were prepared as substrates for these enzymes, differing in their carboxy terminal sequence. One form terminated in cysteine-valine-leucine-serine (Ras-CVLS) the other in cystein-valine-leucine-leucine (Ras-CVLL). Ras-CVLS is a substrate for the farnesyl protein transferase while Ras-CVLL is a substrate for geranylgeranyl protein transferase I. The cDNAs encoding these proteins were constructed so that the proteins contain an amino-terminal extension of 6 histidine residues. Both proteins were expressed in Escherichia coli and purified using metal chelate affinity chromatography. The radiolabelled isoprenyl pyrophosphate substrates, [^3H]farnesyl pyrophosphate and [^3H]geranylgeranyl pyrophosphate, were purchased from DuPont/New England Nuclear. Several methods for measuring farnesyl protein transferase activity have been described (Reiss et al 1990, Cell 62: 81; Schaber et al 1990, J. Biol. Chem. 265: 14701; Manne et al 1990, PNAS 87: 7541; and Barbacid & Manne 1993, U.S. Patent No. 5,185,248). […] The reaction was allowed to proceed for 30 minutes at room temperature and then stopped with 0.5 ml of 4% sodium dodecyl sulfate (SDS) followed by 0.5 ml of cold 30% TCA. Samples were allowed to sit on ice for 45 minutes and precipitated Ras protein was then collected on GF/C filter paper mats using a Brandel cell harvester. Filter mats were washed once with 6% TCA, 2% SDS and radioactivity was measured in a Wallac 1204 Betaplate BS liquid scintillation counter. Percent inhibition was calculated relative to the DMSO vehicle control. The geranylgeranyl protein transferase I assay was essentially identical to the farnesyl protein transferase assay described above, with two exceptions: [^3H]geranylgeranylpyrophosphate replaced farnesyl pyrophosphate as the isoprenoid donor and Ras-CVLL was the protein acceptor. […] Cell-Based Assay: Transient expression of val^12-Ha-Ras-CVLS and val^12-Ha-Ras-CVLL in COS monkey kidney cells: Effect of farnesyl protein transferase inhibitors on Ras processing and on disordered cell growth induced by transforming Ras. COS monkey kidney cells were transfected by electroporation with the plasmid pSV-SPORT (Gibco/BRL) containing a cDNA insert encoding either Ras-CVLS or Ras-CVLL, leading to transient overexpression of a Ras substrate for either farnesyl protein transferase or geranylgeranyl protein transferase I, respectively (see above). Following electroporation, cells were plated into 6-well tissue culture dishes containing 1.5 ml of Dulbecco's-modified Eagle's media (GIBCO, Inc.) supplemented with 10% fetal calf serum and the appropriate farnesyl protein transferase inhibitors. After 24 hours, media was removed and fresh media containing the appropriate drugs was re-added.

[6] = molecular target: T1, farnesyl protein transferase (FPT) (Rattus norvegicus, UniProt Q02293+Q04631); test: In vitro enzyme assay: inhibition of farnesyl protein transferase (transfer of [3H]farnesyl to Ras-CVLS); type: biochemical; conditions: partially purified rat brain FPT, Ras-CVLS
T1 construct: were partially purified from rat brain by ammonium sulfate fractionation followed by Q-Sepharose; from tissue; host or cells: rat brain
Method: • 1. In vitro enzyme assays: Inhibition of farnesyl protein transferase and geranylgeranyl protein transferase. […] Human farnesyl protein transferase was also expressed in E. coli, using cDNA clones encoding both the a and b subunits. […] Human farnesyl protein transferase was partially-purified from the soluble protein fraction of E. coli as described above. […] Two forms of val^12-Ha-Ras protein were prepared as substrates for these enzymes, differing in their carboxy terminal sequence. One form terminated in cysteine-valine-leucine-serine (Ras-CVLS) the other in cystein-valine-leucine-leucine (Ras-CVLL). Ras-CVLS is a substrate for the farnesyl protein transferase while Ras-CVLL is a substrate for geranylgeranyl protein transferase I. The cDNAs encoding these proteins were constructed so that the proteins contain an amino-terminal extension of 6 histidine residues. Both proteins were expressed in Escherichia coli and purified using metal chelate affinity chromatography. The radiolabelled isoprenyl pyrophosphate substrates, [^3H]farnesyl pyrophosphate and [^3H]geranylgeranyl pyrophosphate, were purchased from DuPont/New England Nuclear. […] The reaction was allowed to proceed for 30 minutes at room temperature and then stopped with 0.5 ml of 4% sodium dodecyl sulfate (SDS) followed by 0.5 ml of cold 30% TCA. Samples were allowed to sit on ice for 45 minutes and precipitated Ras protein was then collected on GF/C filter paper mats using a Brandel cell harvester. […] Percent inhibition was calculated relative to the DMSO vehicle control. The geranylgeranyl protein transferase I assay was essentially identical to the farnesyl protein transferase assay described above, with two exceptions: [^3H]geranylgeranylpyrophosphate replaced farnesyl pyrophosphate as the isoprenoid donor and Ras-CVLL was the protein acceptor. […] Cell-Based Assay: Transient expression of val^12-Ha-Ras-CVLS and val^12-Ha-Ras-CVLL in COS monkey kidney cells: Effect of farnesyl protein transferase inhibitors on Ras processing and on disordered cell growth induced by transforming Ras. COS monkey kidney cells were transfected by electroporation with the plasmid pSV-SPORT (Gibco/BRL) containing a cDNA insert encoding either Ras-CVLS or Ras-CVLL, leading to transient overexpression of a Ras substrate for either farnesyl protein transferase or geranylgeranyl protein transferase I, respectively (see above). Following electroporation, cells were plated into 6-well tissue culture dishes containing 1.5 ml of Dulbecco's-modified Eagle's media (GIBCO, Inc.) supplemented with 10% fetal calf serum and the appropriate farnesyl protein transferase inhibitors. After 24 hours, media was removed and fresh media containing the appropriate drugs was re-added. 48 hours after electroporation cells were examined under the microscope to monitor disordered cell growth induced by transforming Ras. Cells expressing transforming Ras become more rounded and refractile and overgrow the monolayer, reminiscent of the transformed phenotype. Cells were then photographed, washed twice with 1 ml of cold phosphate-buffered saline (PBS) and removed from the dish by scraping with a rubber policeman into 1 ml of a buffer containing 25 mM Tris, pH 8.0; 1 mM ethylenediamine tetraacetic acid; 1 mM phenylmethylsulfonyl fluoride; […] leupeptin; and 0.1 mM pepstatin. Cells were lysed by homogenization and cell debris was removed by centrifugation at 2000 x g for 10 min. Cellular protein was precipitated by addition of ice-cold trichloroacetic acid and redissolved in […] of SDS-electrophoresis sample buffer. […] Proteins resolved on the gels were electroblotted onto nitrocellulose membranes for immunodetection. […] After washing, membranes were incubated for one hour at room temperature with a 1:5000 dilution of secondary antibody, rabbit anti-rat IgG conjugated to horseradish peroxidase, in PBS containing 1% fetal calf serum.

[7] = system: DLD-1 (human colon carcinoma cells, ATCC # CCL 221); test: In Vivo Anti-Tumor Studies, subcutaneous DLD-1 tumors; set-up: species or system athymic nu/nu female mice; conditions: Mus musculus, DLD-1, po, QID, 4 weeks, range over the listed compounds
From the text: Tumor cells (5 X 10^5 to 8 X 10^6) of DLD-1 (human colon carcinoma cells, ATCC # CCL 221) are innolculated subcutaneously into the flank of 5-6 week o;d athymic nu/nu female mice.

[8] = Homo sapiens, SW-620, Mat assay

Row | Structure (SMILES) | IC50 [2, 8] | IC50 [3] | IC50 ([4]; Homo sapiens) | IC50 ([5]; Primates, COS) | IC50 ([6]; Table 1, read-out: FPT IC50) | other results
1 | NC(=O)N1CCC(CC(=O)N2CCC(=C3c4ncc(Br)cc4CCc4cc(Cl)cc(Br)c43)CC2)CC1 (racemic) [Example 8] | 3100 nM | 3100 nM | < 1600 nM | < 250 nM |  | IC50 ([1]; Homo sapiens, Fibroblast): > 25000 nM
2 | O=C(Cc1cc[n+]([O-])cc1)N1CCN(C2c3ncc(Br)cc3CCc3cc(Cl)cc(Br)c32)CC1 (racemic) [Example 11] |  |  |  | < 250 nM | 2 nM | 
3 | O=C(Cc1cc[n+]([O-])cc1)N1CCC(=C2c3ncc(Br)cc3CCc3cc(Cl)cc(Br)c32)CC1 (single isomer, unassigned) [Example 7A] |  |  |  |  |  | IC50 [1]: > 25000 nM; IC50 ([6]; FPT IC50, Table 1): > 100 nM; inhibition in vivo at 10 mg/kg ([7]; 10 mg/kg p.o.): 7 to 50%; inhibition in vivo at 50 mg/kg ([7]; 50 mg/kg p.o.): 35.4 to 83%; IC50 [4]: < 1600 nM; IC50 [5]: > 1000 nM
4 | O=C(Cc1cc[n+]([O-])cc1)N1CCC(C2c3ncc(Br)cc3CCc3cc(Cl)cc(Br)c32)CC1 (single isomer, unassigned) [Example 9A] |  |  | < 1600 nM | 850 nM |  | 
5 | NC(=O)N1CCC(CC(=O)N2CCC(C3c4ccc(Cl)c(Br)c4CCc4cc(Br)cnc43)CC2)CC1 (single isomer, unassigned) [Example 13A] |  | 6250 nM |  |  |  | IC50 ([2]; Mat assay): 6250 nM; IC50 [5]: > 1000 nM
6 | NC(=O)N1CCC(CC(=O)N2CCC(C3c4ccc(Cl)c(Br)c4CCc4cc(Br)cnc43)CC2)CC1 (single isomer, unassigned) [Example 13B] | > 3100 nM |  | < 1600 nM |  |  | 
7 | O=C(Cc1cc[n+]([O-])cc1)N1CCN(C2c3ncc(Br)cc3CCc3cc(Cl)cc(Cl)c32)CC1 (single isomer, unassigned) [Example 19] | 6250 nM | < 1600 nM | < 1600 nM |  | < 3.8 nM | IC50 ([1]; Homo sapiens, Fibroblast): > 25000 nM
8 | O=C(Cc1cc[n+]([O-])cc1)N1CCN(C2c3ncc(Br)cc3CCc3cccc(Cl)c32)CC1 (single isomer, unassigned) [Example 20] |  |  |  | ~30 nM |  | 
9 | O=C(Cc1cc[n+]([O-])cc1)N1CCN(C2c3ccc(Cl)c(Br)c3CCc3cc(Br)cnc32)CC1 (stereo not shown) [5 • HCl salt] |  |  |  | 10 nM | 3.8 nM | 
